Test results: ChEMBL document CHEMBL2440076, “New triarylpyrazoles as broad-spectrum anticancer agents: design, synthesis, and biological evaluation” (Eur J Med Chem, 2013)

How the values were obtained:
Assay type in all cases: functional
SF-295 [1] = assay: Growth inhibition of human SF295 cells assessed as cell growth at 3X10'-7 M after 48 hrs by sulforhodamine B assay; details: SF-295, 48 h, read-out: Activity
786-0 = assay: Growth inhibition of human 786-0 cells assessed as cell growth at 3X10'-5 M after 48 hrs by sulforhodamine B assay; details: 786-0, 48 h, read-out: Activity
U-251 [2] = assay: Growth inhibition of human U251 cells assessed as cell growth at 3X10'-7 M after 48 hrs by sulforhodamine B assay; details: U-251, 48 h, read-out: Activity
OVCAR-4 = assay: Growth inhibition of human OVCAR4 cells assessed as cell growth at 3X10'-9 M after 48 hrs by sulforhodamine B assay; details: OVCAR-4, 48 h, read-out: Activity
[3] = Growth inhibition of human NCI-ADR-RES cells assessed as cell growth at 3X10'-6 M after 48 hrs by sulforhodamine B assay; details: read-out: Activity
SK-OV-3 = assay: Growth inhibition of human SKOV3 cells assessed as cell growth at 3X10'-7 M after 48 hrs by sulforhodamine B assay; details: SK-OV-3, 48 h, read-out: Activity
LOX IMVI [4] = assay: Growth inhibition of human LOXIMVI cells assessed as cell growth at 3X10'-8 M after 48 hrs by sulforhodamine B assay; details: read-out: Activity
PC-3 [5] = assay: Growth inhibition of human PC3 cells assessed as cell growth at 3X10'-8 M after 48 hrs by sulforhodamine B assay; details: PC-3, 48 h, read-out: Activity
HT-29 = assay: Growth inhibition of human HT-29 cells assessed as cell growth at 3X10'-9 M after 48 hrs by sulforhodamine B assay; details: HT-29, 48 h, read-out: Activity
HCT-116 = assay: Growth inhibition of human HCT116 cells assessed as cell growth at 3X10'-5 M after 48 hrs by sulforhodamine B assay; details: HCT-116, 48 h, read-out: Activity
HCT-15 [6] = assay: Growth inhibition of human HCT15 cells assessed as cell growth at 3X10'-6 M after 48 hrs by sulforhodamine B assay; details: HCT-15, 48 h, read-out: Activity
ACHN = assay: Growth inhibition of human ACHN cells assessed as cell growth at 3X10'-6 M after 48 hrs by sulforhodamine B assay; details: read-out: Activity
SF-295 [7] = assay: Growth inhibition of human SF295 cells assessed as cell growth at 3X10'-6 M after 48 hrs by sulforhodamine B assay; details: SF-295, 48 h, read-out: Activity
U-251 [8] = assay: Growth inhibition of human U251 cells assessed as cell growth at 3X10'-8 M after 48 hrs by sulforhodamine B assay; details: U-251, 48 h, read-out: Activity
HCT-15 [9] = assay: Growth inhibition of human HCT15 cells assessed as cell growth at 3X10'-7 M after 48 hrs by sulforhodamine B assay; details: HCT-15, 48 h, read-out: Activity
IGROV-1 = assay: Growth inhibition of human IGROV1 cells assessed as cell growth at 3X10'-6 M after 48 hrs by sulforhodamine B assay; details: IGROV-1, 48 h, read-out: Activity
Malme-3M = assay: Growth inhibition of human MALME-3M cells assessed as cell growth at 3X10'-5 M after 48 hrs by sulforhodamine B assay; details: read-out: Activity
SF-539 = assay: Growth inhibition of human SF539 cells assessed as cell growth at 3X10'-7 M after 48 hrs by sulforhodamine B assay; details: SF-539, 48 h, read-out: Activity
SR [10] = assay: Growth inhibition of human SR cells assessed as cell growth at 3X10'-5 M after 48 hrs by sulforhodamine B assay; details: read-out: Activity
SNB-75 = assay: Growth inhibition of human SNB75 cells assessed as cell growth at 3X10'-5 M after 48 hrs by sulforhodamine B assay; details: SNB-75, 48 h, read-out: Activity
MCF7 = assay: Growth inhibition of human MCF7 cells assessed as cell growth at 3X10'-8 M after 48 hrs by sulforhodamine B assay; details: MCF7, 48 h, read-out: Activity
OVCAR-5 = assay: Growth inhibition of human OVCAR5 cells assessed as cell growth at 3X10'-6 M after 48 hrs by sulforhodamine B assay; details: OVCAR-5, 48 h, read-out: Activity
NCI-H226 = assay: Growth inhibition of human NCI-H226 cells assessed as cell growth at 3X10'-7 M after 48 hrs by sulforhodamine B assay; details: NCI-H226, 48 h, read-out: Activity
LOX IMVI [11] = assay: Growth inhibition of human LOXIMVI cells assessed as cell growth at 3X10'-9 M after 48 hrs by sulforhodamine B assay; details: read-out: Activity
PC-3 [12] = assay: Growth inhibition of human PC3 cells assessed as cell growth at 3X10'-6 M after 48 hrs by sulforhodamine B assay; details: PC-3, 48 h, read-out: Activity
SW-620 = assay: Growth inhibition of human SW620 cells assessed as cell growth at 3X10'-6 M after 48 hrs by sulforhodamine B assay; details: SW-620, 48 h, read-out: Activity
LOX IMVI [13] = assay: Growth inhibition of human LOXIMVI cells assessed as cell growth at 3X10'-7 M after 48 hrs by sulforhodamine B assay; details: read-out: Activity
[14] = Growth inhibition of human HCC2998 cells assessed as cell growth at 3X10'-7 M after 48 hrs by sulforhodamine B assay; details: HCC 2998, 48 h, read-out: Activity
[15] = Growth inhibition of human Hs 578T cells assessed as cell growth at 3X10'-9 M after 48 hrs by sulforhodamine B assay; details: read-out: Activity
MDA-MB-435 = assay: Growth inhibition of human MDA-MB-435 cells assessed as cell growth at 3X10'-6 M after 48 hrs by sulforhodamine B assay; details: MDA-MB-435, 48 h, read-out: Activity
UACC-257 = assay: Growth inhibition of human UACC257 cells assessed as cell growth at 3X10'-8 M after 48 hrs by sulforhodamine B assay; details: UACC-257, 48 h, read-out: Activity
BT-549 = assay: Growth inhibition of human BT549 cells assessed as cell growth at 3X10'-8 M after 48 hrs by sulforhodamine B assay; details: BT-549, 48 h, read-out: Activity
A498 = assay: Growth inhibition of human A498 cells assessed as cell growth at 3X10'-9 M after 48 hrs by sulforhodamine B assay; details: A498, 48 h, read-out: Activity
SK-MEL-2 = assay: Growth inhibition of human SK-MEL-2 cells assessed as cell growth at 3X10'-8 M after 48 hrs by sulforhodamine B assay; details: SK-MEL-2, 48 h, read-out: Activity
SR [16] = assay: Growth inhibition of human SR cells assessed as cell growth at 3X10'-6 M after 48 hrs by sulforhodamine B assay; details: read-out: Activity
COLO 205 = assay: Growth inhibition of human COLO205 cells assessed as cell growth at 3X10'-9 M after 48 hrs by sulforhodamine B assay; details: COLO 205, 48 h, read-out: Activity
HL-60(TB) = assay: Growth inhibition of human HL-60(TB) cells assessed as cell growth at 3X10'-9 M after 48 hrs by sulforhodamine B assay; details: HL-60, 48 h, read-out: Activity

Row | Structure (SMILES) | growth at 30 µM (786-0) [%] | growth at 0.3 µM (U-251 [2]) [%] | growth at 0.003 µM (OVCAR-4) [%] | growth at 3 µM [3] [%] | growth at 0.3 µM (SK-OV-3) [%] | growth at 0.03 µM (LOX IMVI [4]) [%] | growth at 0.03 µM (PC-3 [5]) [%] | growth at 0.003 µM (HT-29) [%] | growth at 30 µM (HCT-116) [%] | growth at 3 µM (HCT-15 [6]) [%] | growth at 3 µM (ACHN) [%] | growth at 0.03 µM (U-251 [8]) [%] | growth at 0.3 µM (HCT-15 [9]) [%] | growth at 3 µM (IGROV-1) [%] | growth at 30 µM (Malme-3M) [%] | growth at 0.3 µM (SF-539) [%] | growth at 30 µM (SR [10]) [%] | growth at 30 µM (SNB-75) [%] | growth at 0.03 µM (MCF7) [%] | growth at 3 µM (OVCAR-5) [%] | other results
1 | COc1cc(-c2nn(-c3cccc(NC(=O)c4ccc(Cl)c(C(F)(F)F)c4)c3)cc2-c2ccncc2)ccc1Cl | 32 | 91 | 98 | 22 | 103 | 91 | 92 | 90 | 18 | 50 | 47 | 99 | 94 | 40 | -6 | 91 | 4 | -2 | 93 | 88 | growth at 0.3 µM (SF-295 [1]): 90%; growth at 3 µM (SF-295 [7]): 27%; growth at 0.3 µM (NCI-H226): 84%; growth at 0.003 µM (LOX IMVI [11]): 92%; growth at 3 µM (PC-3 [12]): 31%; growth at 3 µM (SW-620): 55%; growth at 0.3 µM (LOX IMVI [13]): 86%; growth at 0.3 µM [14]: 101%; growth at 0.003 µM [15]: 93%; growth at 3 µM (MDA-MB-435): -32%; growth at 0.03 µM (UACC-257): 102%; growth at 0.03 µM (BT-549): 96%; growth at 0.003 µM (A498): 95%; growth at 0.03 µM (SK-MEL-2): 100%; growth at 3 µM (SR [16]): 5%; growth at 0.003 µM (COLO 205): 101%; growth at 0.003 µM (HL-60(TB)): 93%
2 | O=C(Nc1cccc(-n2cc(-c3ccncc3)c(-c3ccc(Cl)c(O)c3)n2)c1)Nc1ccc(Cl)c(Cl)c1 | 5 | 100 | 103 | 46 | 98 | 91 | 98 | 100 | -39 | 14 | 5 | 100 | 99 | 29 | -15 | 87 | -5 | -15 | 93 | 42 | growth at 0.3 µM (NCI-H226): 94%; growth at 0.003 µM (LOX IMVI [11]): 96%; growth at 3 µM (PC-3 [12]): 6%; growth at 3 µM (SW-620): 23%; growth at 0.3 µM (LOX IMVI [13]): 90%; growth at 0.3 µM [14]: 115%; growth at 0.003 µM [15]: 89%; growth at 3 µM (MDA-MB-435): 14%; growth at 0.03 µM (UACC-257): 93%; growth at 0.03 µM (BT-549): 102%; growth at 0.003 µM (A498): 103%; growth at 0.03 µM (SK-MEL-2): 106%; growth at 3 µM (SR [16]): 11%; growth at 0.003 µM (COLO 205): 100%; growth at 0.003 µM (HL-60(TB)): 90%
3 | O=C(Nc1cccc(-n2cc(-c3ccncc3)c(-c3ccc(Cl)c(O)c3)n2)c1)Nc1ccc(Cl)c(C(F)(F)F)c1 | 1 | 82 | 99 | -7 | 95 | 99 | 89 | 97 | -43 | 4 | 8 | 96 | 84 | -17 | -70 | 89 | -7 | -31 | 90 | 33 | growth at 0.3 µM (SF-295 [1]): 90%; growth at 3 µM (SF-295 [7]): -22%; growth at 0.3 µM (NCI-H226): 82%; growth at 0.003 µM (LOX IMVI [11]): 100%; growth at 3 µM (PC-3 [12]): -15%; growth at 3 µM (SW-620): 5%; growth at 0.3 µM (LOX IMVI [13]): 87%; growth at 0.3 µM [14]: 95%; growth at 0.003 µM [15]: 91%; growth at 3 µM (MDA-MB-435): -31%; growth at 0.03 µM (UACC-257): 94%; growth at 0.03 µM (BT-549): 106%; growth at 0.003 µM (A498): 91%; growth at 0.03 µM (SK-MEL-2): 113%; growth at 3 µM (SR [16]): -10%; growth at 0.003 µM (COLO 205): 105%; growth at 0.003 µM (HL-60(TB)): 116%
